In the supplement of paper PMC10307832:

Key:
Assay in all cases: relative viability (nuclei count vs DMSO), 5 days (fraction); higher = more cells survive
HCC-15 = system: HCC-15
Procedure, shortened: (§1)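 Relative viability equals treated-well nuclei counts divided by vehicle-well nuclei counts. Counts came from 4× images of lung cancer cell lines grown in 1536-well plates for 5 days after pin-tool dosing on the day after seeding. Dosing used one drug alone or a fixed anchor-drug dose plus five library-drug doses (not always all listed) in √10 steps, and values are medians of duplicate plates.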

LOU-NH91 = system: LOU-NH91
Procedure, shortened: as §1

NCI-H1755 = system: NCI-H1755
Procedure, shortened: as §1

HCC-366 = system: HCC-366
Procedure, shortened: as §1

NCI-H838 = system: NCI-H838
Procedure, shortened: as §1

NCI-H460 = system: NCI-H460
Procedure, shortened: as §1

CAL-12T = system: CAL-12T
Procedure, shortened: as §1

NCI-H1355 = system: NCI-H1355
Procedure, shortened: as §1

NCI-H441 = system: NCI-H441
Procedure, shortened: as §1

NCI-H358 = system: NCI-H358
Procedure, shortened: as §1

NCI-H1975 = system: NCI-H1975
Procedure, shortened: as §1

BEN = system: BEN
Procedure, shortened: as §1

NCI-H1650 = system: NCI-H1650
Procedure, shortened: as §1

NCI-H2085 = system: NCI-H2085
Procedure, shortened: as §1

EKVX = system: EKVX
Procedure, shortened: as §1

NCI-H1734 = system: NCI-H1734
Procedure, shortened: as §1

NCI-H1395 = system: NCI-H1395
Procedure, shortened: as §1

NCI-H1437 = system: NCI-H1437
Procedure, shortened: as §1

HCC-44 = system: HCC-44
Procedure, shortened: as §1

LCLC-103H = system: LCLC-103H
Procedure, shortened: as §1

NCI-H2342 = system: NCI-H2342
Procedure, shortened: as §1

NCI-H1651 = system: NCI-H1651
Procedure, shortened: as §1

NCI-H2023 = system: NCI-H2023
Procedure, shortened: as §1

COc1cc(N2CCC(C(N)=O)CC2)ccc1Nc1nc(N)c(Cl)c(Nc2ccccc2S(=O)(=O)C(C)C)n1 [HG-5-88-01] + O=C(CCCCCCC(=O)Nc1ccccc1)NO [Vorinostat] (partner 1 µM) was tested, and the relative viability (HCC-15; first compound 0.04 µM) was 0.822, the relative viability (HCC-15; first compound 0.1265 µM) was 0.916 and the relative viability (HCC-15; first compound 0.4 µM) was 0.761. For the same compound, the relative viability (HCC-15; first compound 1.265 µM) was 0.833, the relative viability (HCC-15; first compound 4 µM) was 0.786 and the relative viability (LOU-NH91; first compound 0.04 µM) was 0.869. For the same compound, the relative viability (LOU-NH91; first compound 0.1265 µM) was 0.823, the relative viability (LOU-NH91; first compound 0.4 µM) was 0.723 and the relative viability (LOU-NH91; first compound 1.265 µM) was 0.508. The relative viability (LOU-NH91; first compound 4 µM) was 0.469, the relative viability (NCI-H1755; first compound 0.04 µM) was 0.79 and the relative viability (NCI-H1755; first compound 0.1265 µM) was 0.804. The relative viability (NCI-H1755; first compound 0.4 µM) was 0.715, the relative viability (NCI-H1755; first compound 1.265 µM) was 0.748 and the relative viability (NCI-H1755; first compound 4 µM) was 0.744. The relative viability (HCC-366; first compound 0.04 µM) was 0.438, the relative viability (HCC-366; first compound 0.1265 µM) was 0.452 and the relative viability (HCC-366; first compound 0.4 µM) was 0.339. It also gave a relative viability (HCC-366; first compound 1.265 µM) of 0.336, a relative viability (HCC-366; first compound 4 µM) of 0.283 and a relative viability (NCI-H838; first compound 0.04 µM) of 0.745. The relative viability (NCI-H838; first compound 0.1265 µM) was 0.707, the relative viability (NCI-H838; first compound 0.4 µM) was 0.651 and the relative viability (NCI-H838; first compound 1.265 µM) was 0.596. It also gave a relative viability (NCI-H838; first compound 4 µM) of 0.53, a relative viability (NCI-H460; first compound 0.04 µM) of 0.72 and a relative viability (NCI-H460; first compound 0.1265 µM) of 0.737. For the same compound, the relative viability (NCI-H460; first compound 0.4 µM) was 0.678, the relative viability (NCI-H460; first compound 1.265 µM) was 0.783 and the relative viability (NCI-H460; first compound 4 µM) was 0.595. The relative viability (CAL-12T; first compound 0.04 µM) was 0.747, the relative viability (CAL-12T; first compound 0.1265 µM) was 0.89 and the relative viability (CAL-12T; first compound 0.4 µM) was 0.623. It also gave a relative viability (CAL-12T; first compound 1.265 µM) of 0.811, a relative viability (CAL-12T; first compound 4 µM) of 0.49 and a relative viability (NCI-H1355; first compound 0.04 µM) of 0.59. It also gave a relative viability (NCI-H1355; first compound 0.1265 µM) of 0.62, a relative viability (NCI-H1355; first compound 0.4 µM) of 0.626 and a relative viability (NCI-H1355; first compound 1.265 µM) of 0.587. It also gave a relative viability (NCI-H1355; first compound 4 µM) of 0.399, a relative viability (NCI-H441; first compound 0.04 µM) of 0.779 and a relative viability (NCI-H441; first compound 0.1265 µM) of 0.736. The relative viability (NCI-H441; first compound 0.4 µM) was 0.678, the relative viability (NCI-H441; first compound 1.265 µM) was 0.865 and the relative viability (NCI-H441; first compound 4 µM) was 0.725. The relative viability (NCI-H358; first compound 0.04 µM) was 0.666, the relative viability (NCI-H358; first compound 0.1265 µM) was 0.602 and the relative viability (NCI-H358; first compound 0.4 µM) was 0.544. The relative viability (NCI-H358; first compound 1.265 µM) was 0.155, the relative viability (NCI-H358; first compound 4 µM) was 0.182 and the relative viability (NCI-H1975; first compound 0.04 µM) was 0.734. It also gave a relative viability (NCI-H1975; first compound 0.1265 µM) of 0.711, a relative viability (NCI-H1975; first compound 0.4 µM) of 0.689 and a relative viability (NCI-H1975; first compound 1.265 µM) of 0.612. The relative viability (NCI-H1975; first compound 4 µM) was 0.35, the relative viability (BEN; first compound 0.04 µM) was 0.555 and the relative viability (BEN; first compound 0.1265 µM) was 0.624. It also gave a relative viability (BEN; first compound 0.4 µM) of 0.591, a relative viability (BEN; first compound 1.265 µM) of 0.552 and a relative viability (BEN; first compound 4 µM) of 0.532. It also gave a relative viability (NCI-H1650; first compound 0.04 µM) of 0.577, a relative viability (NCI-H1650; first compound 0.1265 µM) of 0.654 and a relative viability (NCI-H1650; first compound 0.4 µM) of 0.541. For the same compound, the relative viability (NCI-H1650; first compound 1.265 µM) was 0.526, the relative viability (NCI-H1650; first compound 4 µM) was 0.46 and the relative viability (NCI-H2085; first compound 0.04 µM) was 0.825. It also gave a relative viability (NCI-H2085; first compound 0.1265 µM) of 0.846, a relative viability (NCI-H2085; first compound 0.4 µM) of 0.729 and a relative viability (NCI-H2085; first compound 1.265 µM) of 0.791. The relative viability (NCI-H2085; first compound 4 µM) was 0.758, the relative viability (EKVX; first compound 0.04 µM) was 0.789 and the relative viability (EKVX; first compound 0.1265 µM) was 0.775. The relative viability (EKVX; first compound 0.4 µM) was 0.712, the relative viability (EKVX; first compound 4 µM) was 0.63 and the relative viability (NCI-H1734; first compound 0.04 µM) was 0.969. It also gave a relative viability (NCI-H1734; first compound 0.1265 µM) of 0.871, a relative viability (NCI-H1734; first compound 0.4 µM) of 0.833 and a relative viability (NCI-H1734; first compound 1.265 µM) of 0.773. It also gave a relative viability (NCI-H1734; first compound 4 µM) of 0.795, a relative viability (NCI-H1395; first compound 0.04 µM) of 0.69 and a relative viability (NCI-H1395; first compound 0.1265 µM) of 0.681. It also gave a relative viability (NCI-H1395; first compound 0.4 µM) of 0.733, a relative viability (NCI-H1395; first compound 1.265 µM) of 0.832 and a relative viability (NCI-H1395; first compound 4 µM) of 0.597. It also gave a relative viability (NCI-H1437; first compound 0.04 µM) of 0.899, a relative viability (NCI-H1437; first compound 0.1265 µM) of 0.897 and a relative viability (NCI-H1437; first compound 0.4 µM) of 0.645. It also gave a relative viability (NCI-H1437; first compound 1.265 µM) of 0.78, a relative viability (NCI-H1437; first compound 4 µM) of 0.613 and a relative viability (HCC-44; first compound 0.04 µM) of 1.07. It also gave a relative viability (HCC-44; first compound 0.1265 µM) of 1.14, a relative viability (HCC-44; first compound 0.4 µM) of 1.05 and a relative viability (HCC-44; first compound 1.265 µM) of 1.08. It also gave a relative viability (HCC-44; first compound 4 µM) of 1.14, a relative viability (LCLC-103H; first compound 0.04 µM) of 0.826 and a relative viability (LCLC-103H; first compound 0.1265 µM) of 0.767. It also gave a relative viability (LCLC-103H; first compound 0.4 µM) of 0.65, a relative viability (LCLC-103H; first compound 1.265 µM) of 0.757 and a relative viability (LCLC-103H; first compound 4 µM) of 0.605. For the same compound, the relative viability (NCI-H2342; first compound 0.04 µM) was 0.654, the relative viability (NCI-H2342; first compound 0.1265 µM) was 0.961 and the relative viability (NCI-H2342; first compound 0.4 µM) was 0.737. It also gave a relative viability (NCI-H2342; first compound 4 µM) of 0.945, a relative viability (NCI-H1651; first compound 0.04 µM) of 0.509 and a relative viability (NCI-H1651; first compound 0.1265 µM) of 0.57. For the same compound, the relative viability (NCI-H1651; first compound 0.4 µM) was 0.572, the relative viability (NCI-H1651; first compound 1.265 µM) was 0.552 and the relative viability (NCI-H1651; first compound 4 µM) was 0.528. It also gave a relative viability (NCI-H2023; first compound 0.04 µM) of 0.764, a relative viability (NCI-H2023; first compound 0.1265 µM) of 0.777 and a relative viability (NCI-H2023; first compound 0.4 µM) of 0.361. The relative viability (NCI-H2023; first compound 1.265 µM) was 0.425 and the relative viability (NCI-H2023; first compound 4 µM) was 0.436.
